In patent US11439659B2, “Methods and compositions to prevent and treat inflammation and allergic reactions” (priority 2018, dated 2022):

Legend:
DSS colitis = experiment: Mouse model of DSS colitis; format: in vivo
Description: Mouse model of DSS colitis. WT or Ella/hyal1 mice provided 3% DSS in their drinking water for 7 days and body weight measured every day. For HA digestion by PEGPH20, Mice were intravenously injected PEGPH20 (10 mg/kg) every 3 days 24 hour prior to start DSS water feeding. For Adipogenesis inhibition by PPARg inhibitor, Mice were intraperitonealy injected 120 mg/kg every single day 48 hour prior to start DSS water feeding. Mice were sacrificed after 5 and 7 days. Distal colon, mesenteric fat and blood were collected for RNA, Bacterial culture assay and toxin analysis.
(§1) Reverse transcription-quantitative PCR (RTqPCR) analyses. RTqPCR was used to determine the mRNA abundance. Total cellular RNA was extracted using the PureLink RNA Mini Kit(Life Technologies Corporation, Grand Island, N.Y.) and mRNA were purified by using Dynabeads mRNA Purification Kit(Life technologies). 100 ng of mRNA was reverse transcribed to cDNA using iScript cDNA synthesis kit (BIO-RAD LABORATORIES, INC, Hercules, Calif.). Quantitative, real-time PCR was performed on the CFX96 real time system (Biorad) using predeveloped Taqman gene expression assay (Applied Biosystems). The expression of βActin gene was used as a house keeping gene to normalize data.
(§2) Histology and immunohistochemistry (IHC). Tissue biopsies were directly embedded in OCT compound or paraffin. Paraffin embedded tissues are used for Hematoxylin/Eosin (H&E) staining, and frozen sections were fixed in 4% PFA for 20 mins or 100% Aceton prior to immunofluorescence staining. For IHC, fixed and permeabilized tissue sections were blocked with Image-iT FX reagent (invitrogen) before incubating with primary antibodies followed by appropriate 488- or 568-coupled secondary antibodies. Nuclei were counterstained with DAPI. All images were taken with an Olympus BX41 microscope (widefield) or Zeiss LSM510 confocal microscope as indicated.
Flow cytometry analyses. Colon collected from control or DSS-treated mice was cut into small pieces then digested with 2.5 mg/mL Collagenase D and 30 ng/mL DNAse1 for 2 hours at 37° C. then filtered through a 30 μm filter to generate single cell suspension for FACS analyses. Cells were then stained with zombie violet viability dye (BioLegend, 423114), blocked with anti-mouse CD16/32 (eBioscience, 14016185), followed by staining with antibody cocktails for preadipocytes or immune cells. The antibody cocktail for preadipocytes includes AF488-SMA (eBioscience, 53976082), PECy7-CD45 (BioLegend, 147704), PerCy5.5-CD31 (BioLegend, 102522), PE-Thyl (BioLegend, 105308), APC-PDGFRa (eBioscience, 17140181), BV605-SCA1 (BioLegend, 108133) and AF700-CD24 (BioLegend, 108136). The antibody cocktail for immune cells includes PECy7-CD11b (BioLegend, 101216), FITC-Ly6G (eBioscience, 11593182), PE-F4/80 (eBioscience,12480182), APC-CD11C (BioLegend, 117310), AF700-MHCII (eBioscience, 56532182) and APC-Cy7-CD3 (BioLegend, 100222). FACS analyses for surface expression of preadipocyte or immune cell markers were performed by the BD FACSCanto RUO machine and analyzed by FlowJo V10 software. Dead cells stained positive with zombie violet dye were excluded from the analyses.
Serum Endotoxin analyses. Mouse serum was separated from mouse whole blood using serum separator tubes (Becton, Dickinson and Company). Mouse serum Endotoxin levels were quantified by ToxinSensor Chromogenic LAL Endotoxin Assay Kit (GenScript).
Hyaluronan (HA) analysis. Glucosaminoglycan (GAG) including HA were extracted from 3T3L1 supernatant and Murine skin and colon. Samples were homogenized and treated overnight with protease (0.16 mg/ml; Sigma-Aldrich) to degrade protein, followed by purification by anion exchange chromatography using DEAE sephacel (Amersham Biosciences). Columns were washed with a low-salt buffer (0.15 M NaCl in 20 mM sodium acetate; pH 6.0) and eluted with 1 M NaCl. Glycans were desalted by PD10 (GE Healthcare). HA concentration were measured ELISA Duo Set (R&D Systems). […]

[1] = mouse, in vivo
[2] = test system: mouse preadipocytes (3T3L1); experiment: In vitro adipocyte differentiation of 3T3L1 preadipocytes; format: cell-based
Description: Preadipocyte culture. The preadipocyte cell line 3T3-L1 was purchased from ATCC (CL-173) lot 59239597. 3T3-L1 cells were grown in preadipocyte proliferation medium stock (Cell applications, San Diego, Calif.), and P4˜P7 cells were used for in vitro differentiation. To induce differentiation, two days post-confluent 3T3-L1 cells were switched to adipocyte differentiation medium containing insulin, dexamethasone, and IBMX. (Cell applications, San Diego, Calif.), and medium was changed to fresh medium at day 2 and 4. To generate differentiated adipocytes for comparison studies between 3T3-L1 preadipocytes and adipocytes, 3T3-L1 cells were differentiated for 3 days followed by two days culture in Preadipocyte growth media. (Cell applications, San Diego, Calif.) before RNA or protein extraction.
as §1
Hyaluronan (HA) analysis. Glucosaminoglycan (GAG) including HA were extracted from 3T3L1 supernatant and Murine skin and colon. Samples were homogenized and treated overnight with protease (0.16 mg/ml; Sigma-Aldrich) to degrade protein, followed by purification by anion exchange chromatography using DEAE sephacel (Amersham Biosciences). Columns were washed with a low-salt buffer (0.15 M NaCl in 20 mM sodium acetate; pH 6.0) and eluted with 1 M NaCl. Glycans were desalted by PD10 (GE Healthcare). HA concentration were measured ELISA Duo Set (R&D Systems). The size distribution of HA was analyzed by agarose gel electrophoresis 41. The HA sample was mixed with TAE buffer containing 2 M sucrose and electrophoresed at 2 V/cm for 10 hours at room temperature. The gel was stained overnight under light-protective cover at room temperature in a solution containing 0.005% Stains-All in 50% ethanol, and destained in water. Hyalose ladders (Hyalose) were used for standards.

[3] = test system: S. aureus strain USA300/MRSA skin infection; experiment: Mouse model of S. aureus skin infection; format: in vivo
Description: Mouse model of S. aureus skin infection. Staphylococcus aureus strain USA300/MRSA was used for infection. Briefly, the backs of sex-matched and age-matched adult wildtype or Ella/Hyal1 mice were shaved and hair removed by chemical depilation (Nair) then injected subcutaneously with 100 μl of a mid-logarithmic growth phase of S. aureus (2×10^6 CFU of bacteria) in PBS. Mice were sacrificed after day 3 and 8 mm skin punch biopsy comprising the center of the injection site was harvested. Infected skin surrounding the infection center (6˜8 mm) avoid of center abscess was carefully dissected out for RNA extraction or CFU determination. Skin biopsies were homogenized in 1 ml Trizol (for RNA) or PBS (for CFU counting) with 2 mm zirconia beads in a mini-bead beater 16 (Biospect, Bartlesville, Okla.). To count CFU, homogenized skin samples were serially diluted, plated onto Tryptic Soy Agar, and enumerated after 18 hours to quantify the CFU per gram of tissue. For some experiments, PEGPH20(10 mg/kg) was injected intravenously starting from 1 day prior to infection, and vehicle (10 mmol/L histidine, 130 mmol/L NaCl at pH 6.5) was used as control.
as §1, §2

[4] = BADGE compared with hyaluronidase
[5] = 3T3L1 differentiation, 20 ug/ml PEGPH20

Compound | magnitude of inhibition of inflammation of the colon (DSS colitis; [4]) | preventing DSS induced colon injury (colon length, histology, microbial translocation) (DSS colitis; [4]) | expression of TNFα in colon (DSS colitis; DSS colitis, BADGE 120 mg/kg intraperitoneally every day from 48 hour prior to DSS) | Pref-1 expression in the colon (DSS colitis; PPARg inhibitor) | effect on health or behavior of mice [1] | decrease in body weight (DSS colitis; 3% DSS, by day 5) | expression of tumor necrosis factor alpha (TNFα) in colon (DSS colitis; DSS colitis, hyaluronidase delivery, vs control colitis group) | gross inflammatory response of the colon to DSS (DSS colitis; mouse, in vivo) | lipid droplets within cells (Bodipy) ([2]; 3T3L1, day 2 of differentiation, 20 ug/ml PEGPH20) | expression of Zfp521 mRNA [2, 5] | expression of adiponectin (Adipoq) mRNA [2, 5] | expression of antimicrobial peptide cathelicidin (Camp) [2, 5] | expression of zfp423 mRNA ([2]; adipocyte differentiation with added hyaluronidase) | adipogenesis / adipocyte differentiation in vitro ([2]; cultured preadipocytes) | lesion size ([3]; S. aureus skin infection) | expression of Camp ([3]; infected skin) | expression of IL-6 ([3]; infected skin) | gross inflammatory response of the skin to infection ([3]; mouse, in vivo)
CC(C)(c1ccc(OCC2CO2)cc1)c1ccc(OCC2CO2)cc1 (stereo not drawn) [BADGE, Bisphenol A diglycidyl ether] | less | lesser effect than hyaluronidase | inhibited expression | inhibited | – | – | – | – | – | – | – | – | – | – | – | – | – | –
hyaluronidase | – | – | – | – | No effect | lesser decrease in body weight | decreased expression | significant decrease | decreased lipid droplets | decreased mRNA | decreased mRNA | decreased | decreased mRNA | inhibited adipocyte differentiation | decreased lesion size | decreased | decreased expression | significant decrease
